The values that follow come from US8278482B2, “Antimicrobial N-chlorinated compositions” (priority 2008, dated 2012).

Type in all cases: cell-based
Series [1] has as its system Escherichia coli (ATCC 25922). Briefly: Antimicrobial activity (MBC), E. coli ATCC 25922. Here is the method: (§1) To determine antimicrobial activity, Escherichia coli (ATCC 25922), Staphylococcus aureus (ATCC 29213), Pseudomonas aeruginosa (ATCC 27853), and Candida albicans (ATCC 10231) were used in primary screening. In addition, Escherichia coli (MCC 80392), Staphylococcus aureus (MCC 91731), Pseudomonas aeruginosa (MCC 4438), and Candida albicans (MCC 50319), provided by Alcon Laboratories, Fort Worth, Tex., were used. The microbial cultures were diluted in sterile saline pH 4 to prepare inocula. Test compounds were titrated by stepwise two-fold dilutions in sterile saline pH 4. A total of 1.0×10^5 to 1.0×10^6 Colony Forming Units (CFU)/mL microbe was added to each tube, mixed by gentle vortexing, and then incubated at room temperature for 1 h. Microbial plating on Petri dishes (Tryptic Soy agar or Saboraud's Dextrose agar) was performed immediately after the designated exposure after neutralization of the test article dilutions in Dey-Engley Broth. Plates were incubated at 37° C., and the numbers of microbes were counted by direct colony count to quantitate the surviving microbes as CFU/mL. Positive growth controls were made with sterile 0.9% saline. Compounds were dissolved in unbuffered isotonic saline (SAL) or phosphate buffered saline (PBS) at pH 4 or pH 7 (using HCl and/or NaOH as needed). All compounds were tested three times. The results are tabulated to show the comparison of antimicrobial effectiveness range of the compounds.
(§2) Data shown are the Minimum Bactericidal Concentration (MBC) or Minimum Fungicidal Concentration (MFC) (≧99.9% kill) in μg/mL.

For series [2], the system named is Staphylococcus aureus (ATCC 29213). Kind of series: Antimicrobial activity (MBC), S. aureus ATCC 29213. As to the method:
as §1, §2

The test system of series [3] is Candida albicans (ATCC 10231). Kind of series: Antimicrobial activity (MFC), C. albicans ATCC 10231. The note with it: ATCC10231, C. albicans ATCC 10231, pH 4 (Sal), 1 h exposure at room temperature, read-out: Minimum Fungicidal Concentration (MFC) (≧99.9% kill). Here is the method:
as §1, §2

Series [4] deals with mouse fibroblast cells (ATCC CCL-1, L929). Kind of series: Cytotoxicity, WST-8 colorimetric assay. Particulars: 60 min exposure. Here is the method: Cytotoxicity was assessed by a colorimetric assay system using the Dojindo™ cell counting kit containing 2-(2-methoxy-4-nitrophenyl)-3-(4-nitrophenyl)-5-(2,4-disulfophenyl)-2H-tetrazolium, monosodium salt (WST-8). In this assay, the WST-8 reagent was bioreduced by cellular dehydrogenases to a formazan product that is highly soluble in tissue culture medium.
In a standard assay, mouse fibroblast cells (ATCC CCL-1, L929), were cultured in Minimum Essential Medium, α-medium supplemented with 10% heat inactivated fetal bovine serum, L-glutamine, penicillin and streptomycin. Cells were trypsinized and counted under the microscope and seeded at 1.5×10^4 total cells per 100 μL per well of a flat-bottom 96-well plate in order to achieve ˜80% confluence after overnight incubation at 37° C. On the day of the assay, the tissue culture medium was removed and replaced with 30 μL of fresh medium.
Test articles were prepared as 2-fold serial dilutions and 170 μL of each dilution is added into each of 4-wells (total volume per well=200 μL). The test plate was then returned to the 37° C. incubator for 60 min. Immediately after the exposed time, test article from each well was replaced with 200 μL of fresh media. Plates were incubated at 37° C. for 18-20 hours. The following day growth medium was replaced with 100 μL/well of fresh medium containing 10 μL WST-8 reagent. Cells were incubated under growth conditions (5% CO2 at 37° C. humidified incubator), protected from light, until color development was achieved (usually 1-4 hours). Absorbance was read at 450 nm with reference wavelength at 750 nm using Molecular Device SpectraMax M5 plate reader. Untreated or vehicle only treated cells receiving WST-8 reagent served as positive cell proliferation controls.
The absorbance A450/750 from each well of untreated cells and from each well within the dilution series was measured. […] Next, a non-linear regression (curve fit) analysis was performed on all the absorbance data measured from the dilution series, including the absorbance data obtained from wells of the untreated control cells. For each dilution within the dilution series, an average A450/750 was calculated from the four replicate wells.

The mark [5] stands for this setting: ATCC25922, E. coli ATCC 25922, pH 4 (Sal), 1 h exposure at room temperature, read-out: Minimum Bactericidal Concentration (MBC) (≧99.9% kill).
The mark [6] stands for this setting: ATCC29213, S. aureus ATCC 29213, pH 4 (Sal), 1 h exposure at room temperature, read-out: Minimum Bactericidal Concentration (MBC) (≧99.9% kill).
The mark [7] stands for this setting: ATCC25922, E. coli ATCC 25922, pH 7 (PBS), 1 h exposure at room temperature, read-out: Minimum Bactericidal Concentration (MBC) (≧99.9% kill).

Like-named read-outs stand apart in the source and are kept apart here. A value given as a limit tells only on which side of the number the result lay.

As for `CC(C)(CCC[P+](C)(C)C)N(Cl)Cl.[Cl-]` [Compound 21-106, (4-(Dichloroamino)-4-methylpentyl)trimethylphosphonium chloride], the MBC is 4 µg/mL in series [1] (setting [5]) and 2 µg/mL in series [2] (setting [6]). Further, the MFC in series [3] was more than 256 µg/mL.

For the compound `C[S+](C)CC(C)(C)N(Cl)Cl.[Cl-]` [Compound 21-86, (2-(Dichloroamino)-2-methylpropyl)dimethylsulfonium chloride], the values for the MBC in series [1] (setting [5]) and in series [2] (setting [6]) were 8 µg/mL and 4 µg/mL, respectively. In addition, the MFC in series [3] was determined as 128 µg/mL. Besides, the “CT50 (concentration that results in survival of 50% of the cells)” value in series [4] (pH 7 (PBS)) is 0.6 mM.

Consider `CC(C)(CC[N+](C)(C)CC(F)(F)F)N(Cl)Cl.[Cl-]` [Compound 21-132, 3-(Dichloroamino)-N,N,3-trimethyl-N-(2,2,2-trifluoroethyl)butan-1-ammonium chloride], for which the MBC was 4 µg/mL in series [1] (setting [5]) and 2 µg/mL in series [2] (setting [6]). In addition, the MFC in series [3] turned out to be 32 µg/mL.

Turning to `CC(C)(CC[N+]12CCC(CC1)CC2)N(Cl)Cl` [Compound 21-120, 1-(3-(Dichloroamino)-3-methylbutyl)-1-azoniabicyclo[2.2.2]octane methanesulfonate], the MBC came to 8 µg/mL in series [1] (setting [5]) and 2 µg/mL in series [2] (setting [6]). In addition, the MFC in series [3] came to 32 µg/mL. The “CT50 (concentration that results in survival of 50% of the cells)” value in series [4] (pH 4 (Acetate)) is 1.3 mM.

As to `CC(C)(CC[N+](C)(C)C1CCCCC1)N(Cl)Cl.[Cl-]` [Compound 21-126, N-(3-(Dichloroamino)-3-methylbutyl)-N,N-dimethylcyclohexanammonium chloride], the results for the MBC in series [1] (setting [5]) and in series [2] (setting [6]) were 16 µg/mL and 4 µg/mL, respectively. Further, the MFC in series [3] was more than 1020 µg/mL. Besides, in series [4] (pH 4 (Acetate)), the “CT50 (concentration that results in survival of 50% of the cells)” value is 0.6 mM.

In the case of `CC(C)(CCS(=O)(=O)CC[N+](C)(C)C)N(Cl)Cl.[Cl-]` [Compound 21-02, 2-(3-(Dichloroamino)-3-methylbutylsulfonyl)-N,N,N-trimethylethanammonium chloride], the MBC is 8 µg/mL in series [1] (setting [5]) and 2 µg/mL in series [2] (setting [6]). In series [3], the MFC worked out at 32 µg/mL. Moreover, the “CT50 (concentration that results in survival of 50% of the cells)” value in series [4] (pH 4 (Sal)) is given as less than 0.03 mM.

As for `CC(C)(CC[N+](C)(C)CCC[N+](C)(C)C)N(Cl)Cl.[Cl-].[Cl-]` [Compound 21-128, N^1-(3-(Dichloroamino)-3-methylbutyl)-N^1,N^1,N^3,N^3,N^3-pentamethylpropane-1,3-diammonmium chloride], the values for the MBC in series [1] (setting [5]) and in series [2] (setting [6]) were 16 µg/mL and 4 µg/mL, respectively. Moreover, the MFC in series [3] was found to be 128 µg/mL. Besides, the “CT50 (concentration that results in survival of 50% of the cells)” value in series [4] (pH 4 (Acetate)) came to 1.3 mM.

As for `CC[N+](C)(C)CCC(C)(C)N(Cl)Cl.[Cl-]` [Compound 21-134, 3-(Dichloroamino)-N-ethyl-N,N,3-trimethylbutan-1-ammonium chloride], the “CT50 (concentration that results in survival of 50% of the cells)” value in series [4] (pH 4 (Acetate)) was 1.4 mM.

Turning to `CN(CC[N+](C)(C)C)C(=O)CC(C)(C)N(Cl)Cl.[Cl-]` [Compound 21-14, 2-(3-(Dichloroamino)-N,3-dimethylbutanamido)-N,N,N-trimethylethanaminium chloride], the MBC is 16 µg/mL in series [1] (setting [5]), 256 µg/mL in series [1] (setting [7]) and 2 µg/mL in series [2] (setting [6]). Moreover, in series [3], the MFC was 32 µg/mL.

Regarding `CCCC[N+](C)(C)CCC(C)(C)N(Cl)Cl.[Cl-]` [Compound 21-124, N-Butyl-3-(dichloroamino)-N,N,3-trimethylbutan-1-ammonium chloride], the MBC in series [1] (setting [5]) is 8 µg/mL; in series [2] (setting [6]) it was 2 µg/mL. In addition, in series [3], the MFC is 64 µg/mL. In series [4] (pH 4 (Acetate)), the “CT50 (concentration that results in survival of 50% of the cells)” value worked out at 1.0 mM.

With `CCCC[N+](C)(CCCC)CCC(C)(C)N(Cl)Cl` [Compound 21-48, N,N-Dibutyl-3-(dichloroamino)-N-3-dimethylbutan-1-aminium chloride], the MBC stood at 16 µg/mL in series [1] (ATCC25922, 1 h, pH 4, read-out: Minimum Bactericidal Concentration (MBC) (≧99.9% kill)) and 4 µg/mL in series [2] (ATCC29213, 1 h, pH 4, read-out: Minimum Bactericidal Concentration (MBC) (≧99.9% kill)).

With `CC(C)(CC[N+]1(C)CCCC1)N(Cl)Cl.[Cl-]` [Compound 21-130, 1-(3-(Dichloroamino)-3-methylbutyl)-1-methylpyrrolidinium chloride], the MBC worked out at 4 µg/mL in series [1] (setting [5]) and 2 µg/mL in series [2] (setting [6]). In series [3], the MFC is 32 µg/mL.

Regarding `CC(=O)N1CC[N+](C)(CC(C)(C)N(Cl)Cl)CC1.[Cl-]` [Compound 21-110, 4-Acetyl-1-(2-(dichloroamino)-2-methylpropyl)-1-methylpiperazin-1-ium chloride], the MBC turned out to be 64 µg/mL in series [1] (setting [5]) and 16 µg/mL in series [2] (setting [6]). Further, the MFC in series [3] is more than 1020 µg/mL. Besides, the “CT50 (concentration that results in survival of 50% of the cells)” value in series [4] (pH 4 (Sal)) was 0.9 mM.

As for `CC(C)(CC(=O)OCC[N+]1(C)CCCCC1)N(Cl)Cl.[Cl-]` [Compound 21-93, 1-(2-(3-(Dichloroamino)-3-methylbutanoyloxy)ethyl)-1-methylpiperidinium chloride], the MBC in series [1] (setting [5]) is 4 µg/mL; in series [1] (setting [7]), 512 µg/mL; in series [2] (setting [6]), 2 µg/mL.

On to `CC(C)(C[N+]1(C)CCCCC1)N(Cl)Cl.[Cl-]` [Compound 21-78, 1-(2-(dichloroamino)-2-methylpropyl)-1-methylpiperidinium chloride], for which the MBC is 16 µg/mL in series [1] (setting [5]) and 8 µg/mL in series [2] (setting [6]). Further, the MFC in series [3] turned out to be 64 µg/mL.

In the case of `CCCCCCCCCCCC[N+](C)(C)CCC(C)(C)N(Cl)Cl` [Compound 21-138, N-(3-(Dichloroamino)-3-methylbutyl)-N,N-dimethyldodecan-1-ammonium chloride], the “CT50 (concentration that results in survival of 50% of the cells)” value in series [4] (pH 4 (Acetate)) was 0.5 mM.

As to `CC(C)(CC[N+]1(C)CCCCCC1)N(Cl)Cl.[Cl-]` [Compound 21-118, 1-(3-(Dichloroamino)-3-methylbutyl)-1-methylazepanium chloride], the MBC in series [1] (setting [5]) and in series [2] (setting [6]) was 4 µg/mL each time. In addition, the MFC in series [3] was determined as 16 µg/mL. Besides, the “CT50 (concentration that results in survival of 50% of the cells)” value in series [4] (pH 4 (Sal)) amounted to 0.9 mM.

`CC(C)(C[N+](C)(C)CCS(=O)(=O)O)N(Cl)Cl.[Cl-]` [Compound 21-90, 2-(Dichloroamino)-N,N-2-trimethyl-N-(2-sulfoethyl)propan-1-ammonium chloride]: the results for the MBC in series [1] (setting [5]) and in series [2] (setting [6]) were 64 µg/mL and 16 µg/mL, respectively. In addition, in series [3], the MFC was determined as 128 µg/mL.

`CC(C)(CCC[N+](C)(C)C)N(Cl)Cl.[Cl-]` [Compound 21-108]: the MBC in series [1] (setting [5]) stood at 8 µg/mL; in series [2] (setting [6]), 2 µg/mL. Moreover, the MFC in series [3] worked out at 256 µg/mL.

Turning to `CC1(C)CC[N+](C)(CCC(C)(C)N(Cl)Cl)CC1.[Cl-]` [Compound 21-122, 1-(3-(Dichloroamino)-3-methylbutyl)-1,4,4-trimethylpiperidinium chloride], the values for the MBC in series [1] (setting [5]) and in series [2] (setting [6]) were 16 µg/mL and 4 µg/mL, respectively. The “CT50 (concentration that results in survival of 50% of the cells)” value in series [4] (pH 4 (Acetate)) worked out at 1.0 mM.

For the compound `CC(C)(c1cn(CC[N+](C)(C)C)nn1)N(Cl)Cl.[Cl-]` [Compound 21-92, 2-(4-(2-(Dichloroamino)propan-2-yl)-1H-1,2,3-triazol-1-yl)-N,N,N-trimethylethanaminium chloride], the MBC in series [1] (setting [5]) worked out at 8 µg/mL; in series [2] (setting [6]), 4 µg/mL. The MFC in series [3] was 32 µg/mL.
